Series [1] has as its target T1, CAMK1G (1-320) (Homo sapiens, UniProt Q96NX5).
T1 construct: made in house; host or cells: E. coli BL21 (DE3) pLysS
Nature of the series: STD-NMR fragment screening, CAMK1G. Conditions: 1 mM fragment, 20 µM protein; hit if peak in difference spectrum three times higher than local noise. Type of series: binding. The gist of the method: (§1)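 Saturation-transfer difference NMR was run at 25°C and 700 MHz with 20 µM protein, two fragments at 1 mM each, and 10% DMSO-d6. On-resonance saturation was at 0.5–0.6 ppm and off-resonance at 40 ppm, with a 3 s Gaussian-pulse train. A hit required a difference-spectrum peak at least three times the local noise.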

Series [2] deals with T2, DOT1L (Homo sapiens, UniProt Q8TEK3).
T2 construct: made in house; host or cells: E. coli BL21 (DE3) pLysS
T2 sequence (Q8TEK3 1-416): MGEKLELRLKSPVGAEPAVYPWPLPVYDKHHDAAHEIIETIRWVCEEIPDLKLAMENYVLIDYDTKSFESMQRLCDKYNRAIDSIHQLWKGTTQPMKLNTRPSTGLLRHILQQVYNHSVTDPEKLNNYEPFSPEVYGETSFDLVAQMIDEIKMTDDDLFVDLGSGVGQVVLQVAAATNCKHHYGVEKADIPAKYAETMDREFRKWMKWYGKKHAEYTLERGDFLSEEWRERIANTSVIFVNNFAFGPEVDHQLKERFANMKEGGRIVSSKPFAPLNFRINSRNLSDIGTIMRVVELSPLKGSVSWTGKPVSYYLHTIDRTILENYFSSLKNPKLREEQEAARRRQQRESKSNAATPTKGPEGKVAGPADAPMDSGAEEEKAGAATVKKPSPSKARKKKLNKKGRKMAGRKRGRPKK
Nature of the series: ITC validation, DOT1L. Type of series: binding. Conditions: 25°C, detection level >1 mM. The procedure: (§2) The protein was buffer exchanged into 50 mM HEPES, 100 mM NaCl, 2 mM MgCl2, and 1 mM TCEP at pH 7.4. The protein was concentrated to 50–100 µM, and DMSO was added to a final concentration of 5% (^V/V). The fragments were dissolved in DMSO to yield a 100 mM stock solution, which was further diluted with buffer to yield a 5 mM solution also containing 5% (^V/V) DMSO. A MicroCal iTC200 (Malvern) instrument was used with the measuring cell set to 25°C, while the cooling jacket was set to 15°C. After a 120 s initial delay following temperature equilibration, a first injection with 0.5 µl over 2 s was done. […] The measurement was conducted using a needle stirring speed of 1,000 rpm and a reference heat rate of 10 μcal/s. Experiments were aborted, when the measuring cell was unable to reach a heat rate greater than 9 μcal/s during equilibration. Affinities were averaged from duplicates.

The target of series [3] is AAK1 (121-471) (Homo sapiens, UniProt Q2M2I8). Briefly: STD-NMR fragment screening, AAK1. It is filed as binding. To be noted: 1 mM fragment, 20 µM protein; hit if peak in difference spectrum three times higher than local noise. The gist of the method:
as §1

The target of series [4] is JNK3 (Homo sapiens, UniProt P53779). Briefly: ITC, JNK3. It is filed as binding. The procedure: (§3) The protein was buffer exchanged into 50 mM HEPES, 100 mM NaCl, 2 mM MgCl2, and 1 mM TCEP at pH 7.4. The protein was concentrated to 50–100 µM, and DMSO was added to a final concentration of 5% (^V/V). The fragments were dissolved in DMSO to yield a 100 mM stock solution, which was further diluted with buffer to yield a 5 mM solution also containing 5% (^V/V) DMSO. A MicroCal iTC200 (Malvern) instrument was used with the measuring cell set to 25°C, while the cooling jacket was set to 15°C. After a 120 s initial delay following temperature equilibration, a first injection with 0.5 µl over 2 s was done. Nineteen injections with 2 µl over 4 s were performed every 180 s ([Ruhmann et al., 2015]). The measurement was conducted using a needle stirring speed of 1,000 rpm and a reference heat rate of 10 μcal/s. Experiments were aborted, when the measuring cell was unable to reach a heat rate greater than 9 μcal/s during equilibration. Affinities were averaged from duplicates.
Chain of JNK3 (P53779 whole entry, species assumed, the tested form may be a part): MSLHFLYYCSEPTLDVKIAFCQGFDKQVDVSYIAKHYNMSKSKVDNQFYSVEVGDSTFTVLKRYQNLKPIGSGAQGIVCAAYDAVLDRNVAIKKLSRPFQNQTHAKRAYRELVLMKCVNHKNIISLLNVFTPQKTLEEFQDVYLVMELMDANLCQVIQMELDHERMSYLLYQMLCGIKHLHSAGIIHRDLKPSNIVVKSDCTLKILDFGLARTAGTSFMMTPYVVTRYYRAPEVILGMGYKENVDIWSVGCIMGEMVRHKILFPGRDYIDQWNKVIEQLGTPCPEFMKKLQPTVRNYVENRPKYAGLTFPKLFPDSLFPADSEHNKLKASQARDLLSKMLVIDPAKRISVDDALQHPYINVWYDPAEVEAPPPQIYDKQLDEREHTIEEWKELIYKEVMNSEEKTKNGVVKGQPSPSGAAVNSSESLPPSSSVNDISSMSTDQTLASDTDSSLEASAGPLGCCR

For series [5], the target named is JNK2 (Homo sapiens, UniProt P45984). Nature of the series: ITC, JNK2. Type of series: binding. The procedure:
as §3
(Isothermal titration calorimetry measures the heat released or taken up as one component is titrated into another.)

The target of series [6] is AAK1 (Homo sapiens, UniProt Q2M2I8). Nature of the series: ITC validation, AAK1. It is filed as binding. To be noted: for Kd: ITC, 25°C, 5% DMSO, pH 7.4, duplicates. The procedure: as §2
Chain of AAK1 (Q2M2I8 46-315 limits assumed): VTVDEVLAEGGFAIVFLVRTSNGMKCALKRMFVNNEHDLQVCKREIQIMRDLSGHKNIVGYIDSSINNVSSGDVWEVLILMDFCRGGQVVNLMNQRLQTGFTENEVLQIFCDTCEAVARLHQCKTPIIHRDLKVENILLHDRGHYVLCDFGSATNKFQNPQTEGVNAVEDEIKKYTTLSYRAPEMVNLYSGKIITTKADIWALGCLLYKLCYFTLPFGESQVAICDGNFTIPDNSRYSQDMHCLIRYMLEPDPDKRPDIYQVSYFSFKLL
Series [7] in a line: GSH stability assay (HPLC). Type of series: physicochemical. To be noted: t1/2 > 20 h defined as sufficiently stable. The procedure:
A 500 µM fragment solution in PBS buffer pH 7.4, 10% acetonitrile and 200 µM indoprofen as an internal standard, was added to 10 mM GSH solution in a 1:2 ratio. The reaction temperature was 40°C. […] The reaction of fragments with GSH was determined by measuring the decreasing area under the curve (AUC) of the compound relative to the internal standard indoprofen. The gradient was chosen depending on the polarity of fragments to be either one of the following: […]

Series [8] addresses T3, CAMK1G (Homo sapiens, UniProt Q96NX5).
T3 construct: made in house; host or cells: E. coli BL21 (DE3) pLysS
Briefly: ITC validation, CAMK1G. It is filed as binding. To be noted: for Kd: ITC, 25°C, 5% DMSO, pH 7.4, duplicates, 7405: fragment concentration reduced to 2 mM. As for the experimental part:
as §2

Series [9] deals with T4, IDO1 (Homo sapiens, UniProt P14902).
T4 construct: His-tag of pET15b with TEV site (thrombin site replaced) (cleaved yes); made in house; host or cells: E. coli Rosetta 2 (DE3) pLysS
T4 sequence (P14902 whole entry): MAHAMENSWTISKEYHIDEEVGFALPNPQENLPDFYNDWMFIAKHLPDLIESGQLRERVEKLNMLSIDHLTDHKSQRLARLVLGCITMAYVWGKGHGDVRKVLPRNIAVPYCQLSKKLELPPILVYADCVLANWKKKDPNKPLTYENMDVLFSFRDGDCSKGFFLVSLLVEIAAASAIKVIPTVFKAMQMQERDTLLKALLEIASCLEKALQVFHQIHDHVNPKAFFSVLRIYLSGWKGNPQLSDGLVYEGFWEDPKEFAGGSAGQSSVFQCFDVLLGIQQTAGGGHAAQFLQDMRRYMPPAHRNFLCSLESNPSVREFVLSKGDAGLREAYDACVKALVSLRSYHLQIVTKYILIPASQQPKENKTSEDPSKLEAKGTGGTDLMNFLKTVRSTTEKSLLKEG
Nature of the series: ITC validation, IDO1. It is filed as binding. To be noted: ITC, 25°C, 5% DMSO, pH 7.4, duplicates. As for the experimental part:
as §3

In series [10] the target is T5, DOT1L (1-416) (Homo sapiens, UniProt Q8TEK3).
T5 construct: made in house; host or cells: E. coli BL21 (DE3) pLysS
T5 sequence (Q8TEK3 1-416): as the sequence (Q8TEK3 1-416) above
Briefly: STD-NMR fragment screening, DOT1L. Type of series: binding. Conditions: 1 mM fragment, 20 µM protein; hit if peak in difference spectrum three times higher than local noise. Put shortly: as §1

In series [11] the target is T6, IDO1 (1-435) (Homo sapiens, UniProt P14902).
T6 construct: His-tag of pET15b with TEV site (thrombin site replaced) (cleaved yes); made in house; host or cells: E. coli Rosetta 2 (DE3) pLysS
T6 sequence (P14902 whole entry): as the sequence (P14902 whole entry) above
Nature of the series: STD-NMR fragment screening, IDO1. Type of series: binding. Conditions: 1 mM fragment, 20 µM protein; hit if peak in difference spectrum three times higher than local noise. The gist of the method:
as §1

“Also recorded” adds a separate entry of the source.

T3 sequence (Q96NX5 1-320): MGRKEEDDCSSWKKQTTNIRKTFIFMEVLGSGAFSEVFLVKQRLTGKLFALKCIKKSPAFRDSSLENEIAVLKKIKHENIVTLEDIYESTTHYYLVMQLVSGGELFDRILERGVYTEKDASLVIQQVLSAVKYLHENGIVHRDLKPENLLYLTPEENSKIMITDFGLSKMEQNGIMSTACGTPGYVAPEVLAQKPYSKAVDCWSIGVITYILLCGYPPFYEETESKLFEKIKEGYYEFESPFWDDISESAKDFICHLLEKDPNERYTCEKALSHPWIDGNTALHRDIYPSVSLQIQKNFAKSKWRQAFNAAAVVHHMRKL
Chain of AAK1 (121-471) (Q2M2I8 46-315 limits assumed): as the sequence (Q2M2I8 46-315 limits assumed) above
T1 sequence (Q96NX5 1-320): as the sequence (Q96NX5 1-320) above
Chain of JNK2 (P45984 whole entry, species assumed): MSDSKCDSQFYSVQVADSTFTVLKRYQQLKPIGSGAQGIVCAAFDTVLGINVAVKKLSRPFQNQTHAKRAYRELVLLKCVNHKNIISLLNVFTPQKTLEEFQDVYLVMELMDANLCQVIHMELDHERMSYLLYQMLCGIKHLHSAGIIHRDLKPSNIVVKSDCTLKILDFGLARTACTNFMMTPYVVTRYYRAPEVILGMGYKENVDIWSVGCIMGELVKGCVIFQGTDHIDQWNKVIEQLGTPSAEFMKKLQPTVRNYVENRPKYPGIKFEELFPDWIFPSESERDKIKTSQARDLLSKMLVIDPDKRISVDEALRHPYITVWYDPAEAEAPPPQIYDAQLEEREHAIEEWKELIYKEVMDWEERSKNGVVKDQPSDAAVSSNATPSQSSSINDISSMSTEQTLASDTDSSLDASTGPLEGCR

In the case of `Brc1cnc2cnccn12` [Fragment 0120], the STD-NMR hit entry in series [1] is “fragment hits”. In addition, the “ITC validation (KD)” value in series [2] is “None of these could be validated with ITC”.
As to `Clc1ncnc2cc[nH]c12` [Fragment 9595, 4-chloro-5H-pyrrolo[3,2-d]pyrimidine], in series [3], the STD-NMR hit entry is given as “binds”. The Kd (usually the constant that tells how readily two partners part at equilibrium) in series [4] is 130 µM; in [5], 67 µM; in [6], 6 µM. Besides, the “stability with GSH (in words)” value in series [7] is listed as “sufficiently stable”.
Molecule `Cc1c(Cl)cnc(N)c1Cl` [Fragment 7405] displayed a dissociation constant (Kd) in [8] of 130 µM. In addition, in [2], the “ITC validation (KD)” value was “None of these could be validated with ITC”.
For the molecule `Cc1n[nH]c(C)c1I` [Fragment 0459], the STD-NMR hit result in series [3], in series [1], in series [10] and in series [11] was “STD hit” in each case. Besides, the KD entry in [9] is given as “too low to derive reliable affinity determination”. The Kd is more than 1000 µM in series [9], 18 µM in [6] and 190 µM in [8]. For the same molecule, the “ITC validation (KD)” value in series [2] is given as “None of these could be validated with ITC; also recorded: beyond the limits of ITC”.
Turning to `Nc1ccc2[nH]cnc2c1Br` [Fragment 7409], the affinity in series [6], expressed as Kd, was 6 µM. Besides, the LE was 0.67 in series [6] (LE=1/N⋅1.4⋅−log(KD), AAK1) and “over 0.4” in [8] (LE=1/N⋅1.4⋅−log(KD), CAMK1G). In series [6] (LELP= logP/LE, AAK1), this molecule had an LELP of 2.86. In addition, the “stability with GSH (in words)” value in series [7] is “sufficiently stable”.

These data come from paper PMC8847695 (Frontiers in Chemistry, 2022).
